# Where “and” joins values, the source holds several entries; their conditions need not be identical. Identical values can stand only once. Like-named read-outs stand apart in the source and are kept apart here.
# How the values were obtained:
# DPP9 [1] = target: T1, DPP9 (Homo sapiens, UniProt Q86TI2); assay: DPP9 activity assay (BPS Bioscience kit); type: biochemical; details: tested at 100 µM
# T1 construct: purchased BPS Bioscience 800209
# Description: A DPP9 assay kit was purchased from BPS Bioscience (Cat# 800209), and the assay protocol was followed to test for inhibitory activity against DPP9. Briefly, DPP substrate 1 was diluted to make a 100 µM stock solution, and DPP9 protein was diluted in DPP assay buffer to 2 ng/µl (20 ng/reaction). For the tested compounds, 10 µl of diluted DPP9 protein, 5 µl of diluted DPP substrate 1, 84 µl of DPP assay buffer and 1 µl of inhibitor were added into the assay system for a total volume of 100 µl. […]
# [2] = Blood glucose levels after oral emodin; type: in vivo, mice; design: Blood glucose: unit not given here; details: 30 mg/kg P.O.; for Blood glucose: ob/ob mice, individual animals
# Description: Balb/c mice (male, six weeks) and ob/ob (-/-) mice (male, six weeks) were purchased from the Shanghai SLAC Laboratory Animal Co. Ltd. (Shanghai, China) and maintained in an air-conditioned room at 20–25 °C under a 12 h dark/light cycle and fed certified standard chow and tap water ad libitum. Experiments were conducted in compliance with the Guide for the Care and Use of Laboratory Animals. Mice were orally administered with emodin (3, 10, or 30 mg /kg) and had their blood collected at 0.5, 1, 2, and 4 h after emodin treatment. The samples were subjected to plasma isolation immediately after collection. Plasma samples were tested for DPP4 activity with a DPP4-Glo assay kit (Promega, Beijing, China) according to the manufacturer’s protocol. The experimental protocol was approved by Animal Care and Use Committee of Xiamen University(XM2015030514).
# To test the inhibitory activity of emodin on DPP4 in vivo, an animal experiment was conducted by oral administration of emodin (3, 10 and 30 mg/kg, P.O., n = 5) to Balb/c mice, followed by plasma collection at different time points to measure DPP4 activity in the blood. Plasma samples were collected at 0, 0.5, 1, 2 and 4 h after the oral dose of emodin, and plasma DPP4 activity was measured with a DPP4-Glo assay kit. […] The lowest does of emodin (3 mg/kg) decreased plasma DPP4 activity from baseline, although these levels rebounded after 1 h, whereas 10 and 30 mg/kg doses of emodin decreased plasma DPP4 activity and maintained the lower levels until 2 h post-treatment (Fig. 4). This dose-dependent manner is probably due to the pharmacokinetics of emodin, and 10 and 30 mg/kg have maximized the pharmacokinetic coverage, while 3 mg/kg emodin is only sufficient to maintain 1 h DPP4 inhibition in vivo. In the subsequent experiment, emodin (30 mg/kg, P.O.) was administered on Balb/C mice (n = 5) or ob/ob (-/-) mice (n = 5). The DPP4 activity, blood glucoselevels and GLP-1 activity were tested 0, 1, 2, 4, 8 h after administration. […] This downregulation maintained 2 h in Balb/C mice, and 4 h in ob/ob (-/-) mice, which rebounded afterwards (Fig. 5A). […] Plasma GLP-1 activity was also measured.
# DPP9 [3] = target: T1, DPP9; assay: DPP9 activity assay (BPS Bioscience kit); type: biochemical; details: 100 µM, Well #1-#3
# DPP4 [4] = target: T2, DPP4 (Homo sapiens, UniProt P27487); assay: Dialysis assay followed by DPP4 assay; type: biochemical
# Description: Dialysis assay was performed using Slide-A-Lyzer Dialysis Cassettes (Pierce, Shanghai, China). Briefly, 2 mg DPP4 protein was incubated with emodin or dimethyl sulfoxide (DMSO) in 4 ml diluted assay buffer for 10 min at 37 °C. Mixed reaction solution was loaded onto a dialysis cartridge using a syringe and incubated at 4 °C for 8 h. The samples were removed from Dialysis Cassettes by syringes for DPP4 assay.
# Target sequence in this assay (P27487 whole entry, species assumed): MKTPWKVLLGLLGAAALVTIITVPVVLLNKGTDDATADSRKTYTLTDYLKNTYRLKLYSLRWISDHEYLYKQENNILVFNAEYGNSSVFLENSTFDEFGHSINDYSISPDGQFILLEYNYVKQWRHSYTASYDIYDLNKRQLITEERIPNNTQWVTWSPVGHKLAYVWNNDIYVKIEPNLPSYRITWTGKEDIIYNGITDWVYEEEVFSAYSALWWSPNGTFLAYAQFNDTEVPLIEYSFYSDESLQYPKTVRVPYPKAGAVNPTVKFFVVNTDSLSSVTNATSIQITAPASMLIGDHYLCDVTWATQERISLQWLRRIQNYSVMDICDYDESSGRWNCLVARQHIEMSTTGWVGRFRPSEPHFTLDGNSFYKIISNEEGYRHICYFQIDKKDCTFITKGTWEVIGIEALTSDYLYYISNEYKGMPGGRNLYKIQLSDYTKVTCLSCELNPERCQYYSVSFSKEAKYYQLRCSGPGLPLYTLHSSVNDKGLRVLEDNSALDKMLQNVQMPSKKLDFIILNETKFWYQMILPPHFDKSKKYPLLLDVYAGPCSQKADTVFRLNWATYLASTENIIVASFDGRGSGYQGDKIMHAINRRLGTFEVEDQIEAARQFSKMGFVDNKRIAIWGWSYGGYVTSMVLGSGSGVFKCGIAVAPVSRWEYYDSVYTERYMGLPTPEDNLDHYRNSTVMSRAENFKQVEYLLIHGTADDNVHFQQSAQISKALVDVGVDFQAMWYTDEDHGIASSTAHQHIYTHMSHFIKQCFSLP
# DPP4 [5] = target: T2, DPP4; assay: DPP4 activity assay (DPP4 inhibitor screening assay kit, Cayman); type: biochemical; design: purchased Cayman Chemical, Ann Arbor, MI, USA; details: for remaining activity at 10 µM: control mean 100.0;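 for all read-outs here: fluorescence read at excitation 360 nm and emission 460 nm after the enzyme reaction ran 30 min at 37 °C in a 96-well plate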
# Target sequence in this assay (P27487 whole entry): as the sequence (P27487 whole entry, species assumed) above
# DPP4 [6] = target: T2, DPP4; assay: Dialysis assay followed by DPP4 assay; type: biochemical; details: 0 hr of dialysis; triplicate
# Target sequence in this assay (P27487 whole entry, species assumed): as above
# B6C3F1 mice = test system: B6C3F1 mice; design: method as in National Toxicology Program, 2001; Wang & Chung, 1997; details: 280–2,500 ppm, ref National Toxicology Program, 2001, Wang & Chung, 1997, cited from earlier work
# GLP-1 = assay: Plasma GLP-1 activity after oral emodin; type: in vivo, mice; design: GLP-1: unit not given here; details: 30 mg/kg P.O.; for GLP-1: ob/ob mice, individual animals
# Description: In the subsequent experiment, emodin (30 mg/kg, P.O.) was administered on Balb/C mice (n = 5) or ob/ob (-/-) mice (n = 5). […] This downregulation maintained 2 h in Balb/C mice, and 4 h in ob/ob (-/-) mice, which rebounded afterwards (Fig. 5A). […] Plasma GLP-1 activity was also measured.
# [7] = Blood glucose levels after oral emodin; type: in vivo, mice; design: unit not given here; details: 30 mg/kg P.O., C57BL/6 (head), individual animals
# F344/N rats = test system: F344/N rats; design: method as in National Toxicology Program, 2001; Wang & Chung, 1997; details: male F344/N rats, 280–2,500 ppm; ref National Toxicology Program, 2001; Wang & Chung, 1997; cited from earlier work
# T1 sequence (Q86TI2 whole entry): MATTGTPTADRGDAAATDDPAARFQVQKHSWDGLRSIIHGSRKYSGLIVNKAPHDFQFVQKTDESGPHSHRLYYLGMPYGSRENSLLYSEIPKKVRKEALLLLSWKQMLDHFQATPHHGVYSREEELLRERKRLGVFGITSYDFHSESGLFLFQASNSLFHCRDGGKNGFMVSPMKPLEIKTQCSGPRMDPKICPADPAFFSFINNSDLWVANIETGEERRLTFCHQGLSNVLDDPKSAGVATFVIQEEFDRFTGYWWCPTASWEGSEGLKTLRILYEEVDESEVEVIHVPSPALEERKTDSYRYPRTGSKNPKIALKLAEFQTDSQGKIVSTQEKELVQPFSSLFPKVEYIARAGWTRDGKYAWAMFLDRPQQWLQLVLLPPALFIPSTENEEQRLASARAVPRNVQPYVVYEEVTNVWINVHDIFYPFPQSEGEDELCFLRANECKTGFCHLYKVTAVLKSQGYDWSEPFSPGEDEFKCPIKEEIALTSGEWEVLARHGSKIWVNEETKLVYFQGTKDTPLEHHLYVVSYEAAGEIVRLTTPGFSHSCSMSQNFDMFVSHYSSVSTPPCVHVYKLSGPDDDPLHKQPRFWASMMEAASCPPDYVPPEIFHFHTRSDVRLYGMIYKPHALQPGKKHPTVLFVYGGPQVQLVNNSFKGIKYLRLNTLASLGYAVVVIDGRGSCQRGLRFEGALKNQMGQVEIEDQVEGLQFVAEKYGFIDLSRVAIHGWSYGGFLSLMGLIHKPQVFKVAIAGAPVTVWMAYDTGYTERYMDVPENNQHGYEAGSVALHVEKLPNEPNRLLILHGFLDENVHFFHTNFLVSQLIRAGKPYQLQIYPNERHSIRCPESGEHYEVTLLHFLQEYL
compound,measurement,setting,value
Cc1cc(O)c2c(c1)C(=O)c1cc(O)cc(O)c1C2=O [Emodin],activity against DPP9,DPP9 [1],without inhibiting
same,effect on blood glucose levels from baseline,[2]; both Balb/C mice and ob/ob (-/-) mice,significantly downregulated
same,time for which downregulation of blood glucose was maintained,"[2]; both Balb/C mice and ob/ob (-/-) mice, baseline again at 8 h",4 h
same,Blood glucose,[2]; 0 hours (baseline),18.6 and 13.3 and 11.5 and 12.1 and 14.4
same,Blood glucose,[2]; 1 hours,9.4 and 11.3 and 13.1 and 10.9 and 12
same,Blood glucose,[2]; 2 hours,11 and 9.2 and 8.1 and 9.5 and 10.9
same,Blood glucose,[2]; 4 hours,8 and 10.3 and 8.2 and 7.3 and 9.2
same,Blood glucose,[2]; 8 hours,14.7 and 14.2 and 13.9 and 12.8 and 13.1
same,"DPP9 assay, Emission (450 nm)",DPP9 [3],47887 and 46825 and 46023
same,DPP9 activity,DPP9 [3]; DMSO = Ctrl,98.3 % of Ctrl and 96.1 % of Ctrl and 94.5 % of Ctrl
same,DPP4 activity in dialysis assay,"DPP4 [4]; 8 hr of dialysis, triplicate",90 % of DMSO and 88 % of DMSO and 85 % of DMSO
same,"DPP4 activity in dialysis assay, raw signal","DPP4 [4]; 8 hr of dialysis, triplicate",4500000 RLU and 4400000 RLU and 4250000 RLU
same,manner of binding to the DPP4 active site,DPP4 [4]; dialysis 8 h at 4 °C,reversible manner
same,inhibition at 10 µM,"DPP4 [5]; 10 µM, library screen",> 50%
same,remaining activity at 10 µM,"DPP4 [5]; 0.5 h, 10 µM, Figure 1A raw data, read-out: DPP4 activity in library screen, Exp 1",22%
same,remaining activity at 10 µM,"DPP4 [5]; 0.5 h, 10 µM, Figure 1A raw data, read-out: DPP4 activity in library screen, Exp 2",22.6%
same,remaining activity at 10 µM,"DPP4 [5]; 0.5 h, 10 µM, Figure 1A raw data, read-out: DPP4 activity in library screen, Exp 3",41.2%
same,remaining activity at 10 µM,"DPP4 [5]; 0.5 h, 10 µM, mean of Exp 1-3, read-out: DPP4 activity in library screen, Mean",28.6%
same,remaining activity at 0.39 µM,"DPP4 [5]; 0.5 h, Emodin 0.39 μM, Exp 1-4",100%
same,remaining activity at 0.78125 µM,"DPP4 [5]; 0.5 h, Emodin 0.78125 μM, Exp 1-4",104%
same,remaining activity at 1.5625 µM,"DPP4 [5]; 0.5 h, Emodin 1.5625 μM, Exp 1-4",97.8%
same,remaining activity at 3.125 µM,"DPP4 [5]; 0.5 h, Emodin 3.125 μM, Exp 1-4",83.5%
same,remaining activity at 12.5 µM,"DPP4 [5]; 0.5 h, Emodin 12.5 μM, Exp 1-4",37%
same,remaining activity at 25 µM,"DPP4 [5]; 0.5 h, Emodin 25 μM, Exp 1-4",25.1%
same,remaining activity at 100 µM,"DPP4 [5]; 0.5 h, Emodin 100 μM, Exp 1-4",3.77%
same,Ki,"DPP4 [5]; DPP4, means ± SE",0.85 ± 0.06 µM
same,IC50,"DPP4 [5]; in vitro, means ± SE, read-out: IC50 of DPP4 Inhibition",5.7 µM and 5.76 µM
same,DPP4 activity in dialysis assay,DPP4 [6],55 % of DMSO and 58 % of DMSO and 62 % of DMSO
same,"DPP4 activity in dialysis assay, raw signal",DPP4 [6],2750000 RLU and 2900000 RLU and 3100000 RLU
same,carcinogenic activity,B6C3F1 mice; female B6C3F1 mice,no evidence of carcinogenic activity
same,nephropathy,B6C3F1 mice; female mice,increased incidences
same,renal tubule pigmentation,B6C3F1 mice; male and female mice,increased incidences
same,effect on plasma GLP-1 activity,GLP-1; Balb/C and ob/ob (-/-) mice,marginal effect
same,GLP-1,GLP-1; 0 hours (baseline),1.6192 and 1.6714 and 1.7758 and 1.3843 and 3.4984
same,GLP-1,GLP-1; 1 hours,2.9503 and 1.4365 and 2.8459 and 1.8541 and 2.8981
same,GLP-1,GLP-1; 2 hours,3.5245 and 3.4201 and 0.5491 and 2.4022 and 2.2456
same,GLP-1,GLP-1; 4 hours,0.9667 and 2.1673 and 1.2538 and 1.5148 and 2.9503
same,GLP-1,GLP-1; 8 hours,3.655 and 0.784 and 1.2277 and 3.1852
same,Blood glucose,[7]; 0 hours (baseline),15.5 and 10.4 and 10.9 (2×) and 11.2
same,Blood glucose,[7]; 1 hours,10.8 (2×) and 12.2 and 9.3 and 9.7
same,Blood glucose,[7]; 2 hours,9.3 and 9.7 and 8.4 and 8.3 and 8
same,Blood glucose,[7]; 4 hours,8.3 and 7.4 and 7.6 and 9.1 and 7.9
same,Blood glucose,[7]; 8 hours,15.9 and 11.5 and 12.6 (2×) and 15.3
same,carcinogenic activity,F344/N rats,no evidence of carcinogenic activity

# — article PMC5428354, “Screening of a natural compound library identifies emodin, a natural compound from Rheum palmatum Linn that inhibits DPP4” (PeerJ, 2017)
